Results from ChEMBL document CHEMBL1201862, “PubChem BioAssay data set” (2004).
Activity calls are given as the source filed them.

What was measured:
Coagulation factor XII = target: T1, Coagulation factor XII (Homo sapiens, UniProt P00748); assay type: functional;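 note: activated factor XIIa alpha cleaving a fluorogenic AMC peptide substrate; inhibitor potency from loss of enzyme activity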
T1 sequence (P00748 whole entry): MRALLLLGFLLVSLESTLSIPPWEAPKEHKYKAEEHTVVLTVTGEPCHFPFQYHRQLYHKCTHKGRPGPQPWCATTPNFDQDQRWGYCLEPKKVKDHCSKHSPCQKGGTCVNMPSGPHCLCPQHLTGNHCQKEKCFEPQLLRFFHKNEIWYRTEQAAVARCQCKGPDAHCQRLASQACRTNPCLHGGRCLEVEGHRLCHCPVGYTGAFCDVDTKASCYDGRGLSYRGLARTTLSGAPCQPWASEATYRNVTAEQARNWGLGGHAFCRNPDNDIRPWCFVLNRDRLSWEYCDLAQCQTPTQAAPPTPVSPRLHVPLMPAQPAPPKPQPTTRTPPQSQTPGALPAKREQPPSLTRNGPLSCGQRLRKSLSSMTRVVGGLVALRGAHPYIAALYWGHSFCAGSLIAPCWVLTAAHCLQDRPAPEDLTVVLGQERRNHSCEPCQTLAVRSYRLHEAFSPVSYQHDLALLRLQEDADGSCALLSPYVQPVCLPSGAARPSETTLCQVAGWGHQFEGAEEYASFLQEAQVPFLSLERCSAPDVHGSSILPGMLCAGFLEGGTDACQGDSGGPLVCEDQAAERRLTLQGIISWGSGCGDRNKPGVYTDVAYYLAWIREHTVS

[1] = target: T2, Ubiquitin-conjugating enzyme E2 N (Homo sapiens, UniProt P61088); assay type: functional
T2 sequence (P61088 whole entry): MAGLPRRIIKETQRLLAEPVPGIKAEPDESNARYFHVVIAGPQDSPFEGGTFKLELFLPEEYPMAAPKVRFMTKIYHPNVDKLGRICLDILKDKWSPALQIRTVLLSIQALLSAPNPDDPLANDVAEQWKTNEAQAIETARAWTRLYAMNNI

[2] = target: T2, Ubiquitin-conjugating enzyme E2 N; assay type: functional; remark: listed apart in the source
Bcl-2-related protein A1 = target: T3, Bcl-2-related protein A1 (Mus musculus, UniProt Q07440); assay type: functional;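 note: confirmatory dose–response counterscreen on Bfl-1, used to check hits from a UBC13 polyubiquitin inhibitor campaign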
T3 sequence (Q07440 whole entry): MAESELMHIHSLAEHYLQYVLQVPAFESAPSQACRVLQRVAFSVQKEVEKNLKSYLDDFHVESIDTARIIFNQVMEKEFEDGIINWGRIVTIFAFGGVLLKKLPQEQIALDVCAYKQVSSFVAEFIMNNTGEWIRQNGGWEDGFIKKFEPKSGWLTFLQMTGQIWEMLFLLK

SUMO-activating enzyme = SUMO-activating enzyme (Homo sapiens, UniProt Q9UBT2); assay: blockers of UBC9-mediated SUMO conjugation – biochemical, AlphaScreen, SUMOylation inhibitor project, confirmation (AID 2018); assay type: functional
Chain of SUMO-activating enzyme (Q9UBE0 whole entry): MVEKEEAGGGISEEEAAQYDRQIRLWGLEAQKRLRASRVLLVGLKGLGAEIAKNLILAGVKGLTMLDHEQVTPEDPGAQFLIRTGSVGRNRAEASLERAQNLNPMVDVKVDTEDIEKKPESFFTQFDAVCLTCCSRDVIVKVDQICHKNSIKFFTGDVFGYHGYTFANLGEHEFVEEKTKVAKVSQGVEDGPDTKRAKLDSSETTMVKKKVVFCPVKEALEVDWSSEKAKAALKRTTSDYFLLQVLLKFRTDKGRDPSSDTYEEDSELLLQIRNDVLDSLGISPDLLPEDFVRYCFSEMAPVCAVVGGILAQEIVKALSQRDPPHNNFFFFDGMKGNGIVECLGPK
Chain of SUMO-activating enzyme (Q9UBT2 whole entry): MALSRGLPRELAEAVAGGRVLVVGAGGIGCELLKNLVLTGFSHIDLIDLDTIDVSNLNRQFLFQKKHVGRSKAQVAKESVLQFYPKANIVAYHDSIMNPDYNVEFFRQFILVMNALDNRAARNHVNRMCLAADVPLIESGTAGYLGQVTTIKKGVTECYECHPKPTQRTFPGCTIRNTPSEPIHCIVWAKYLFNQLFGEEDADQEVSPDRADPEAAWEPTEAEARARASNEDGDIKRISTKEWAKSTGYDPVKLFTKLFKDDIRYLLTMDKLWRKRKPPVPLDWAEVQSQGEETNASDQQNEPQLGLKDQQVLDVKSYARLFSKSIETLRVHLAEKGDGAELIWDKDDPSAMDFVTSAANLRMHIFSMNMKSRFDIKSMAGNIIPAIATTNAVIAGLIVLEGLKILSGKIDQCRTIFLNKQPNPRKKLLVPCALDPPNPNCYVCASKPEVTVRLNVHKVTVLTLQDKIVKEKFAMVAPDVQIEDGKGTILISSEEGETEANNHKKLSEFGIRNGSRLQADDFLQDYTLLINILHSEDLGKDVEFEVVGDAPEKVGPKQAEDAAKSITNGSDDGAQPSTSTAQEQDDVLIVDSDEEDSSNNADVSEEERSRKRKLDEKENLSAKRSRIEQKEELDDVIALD

HEK293 [3] = assay: cells; assay type: functional, cell-based; settings: Homo sapiens
[4] = Luminescence Cell-Based Dose Response HTS to Identify Inhibitors of 5'UTR Stem-Loop Driven Prion Protein mRNA Translation in H4 Neuroglioblastoma Cells. [Related pubchem assays: 1827 (Project Summary), 1813 (Primary HTS)]; assay type: functional
INS1 = assay: INS-1E survival protection against cytokine death – cell-based, luminescence, retest, dose response (AID 449756); assay type: functional; settings: Rattus norvegicus;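 note: cell death triggered by IL-1 beta plus TNF-alpha plus IFN-gamma mixture; protective hits raise ATP signal compared with cytokine alone wells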
cells = assay type: functional
HEK293 [5] = assay: inhibition of NOD1-driven NF-kB reporter – cell-based, luminescence, uHTS, primary screen (AID 1578); assay type: functional; settings: Homo sapiens
BJ [6] = assay: BJ-TERT-LT-ST fibroblast viability loss – cell-based, RAS-independent, luminescence, dose response (AID 1935); assay type: functional; settings: Homo sapiens;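 note: BJ fibroblasts immortalized with TERT plus LT and ST oncogenes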
[7] = Vero E6 cell cytotoxicity, dose response, cytotoxicity control for non-replicating M. tuberculosis project, secondary assay (AID 492998); assay type: functional, VeroE6; settings: Vero C1008
[8] = luciferase reporter signal suppression in cells – H4 neuroglioma cells, luminescence, dose response (AID 1990); assay type: functional, cell-based
[9] = HepG2 cell cytotoxicity, dose response, cytotoxicity control for non-replicating M. tuberculosis project (AID 489018); assay type: functional; settings: Mycobacterium tuberculosis
[10] = DRD fibroblast viability loss – cell-based, non-viral oncogenic, luminescence, dose response (AID 1934); assay type: functional; settings: Homo sapiens
[11] = target: Nucleotide-binding oligomerization domain-containing protein 2 (Homo sapiens, UniProt Q9HC29); assay: inhibition of NOD2-driven NF-kB reporter – cell-based, luminescence, uHTS, HEK293 (AID 1566); assay type: functional
Chain of Nucleotide-binding oligomerization domain-containing protein 2 (Q9HC29 whole entry, the tested form may be a part): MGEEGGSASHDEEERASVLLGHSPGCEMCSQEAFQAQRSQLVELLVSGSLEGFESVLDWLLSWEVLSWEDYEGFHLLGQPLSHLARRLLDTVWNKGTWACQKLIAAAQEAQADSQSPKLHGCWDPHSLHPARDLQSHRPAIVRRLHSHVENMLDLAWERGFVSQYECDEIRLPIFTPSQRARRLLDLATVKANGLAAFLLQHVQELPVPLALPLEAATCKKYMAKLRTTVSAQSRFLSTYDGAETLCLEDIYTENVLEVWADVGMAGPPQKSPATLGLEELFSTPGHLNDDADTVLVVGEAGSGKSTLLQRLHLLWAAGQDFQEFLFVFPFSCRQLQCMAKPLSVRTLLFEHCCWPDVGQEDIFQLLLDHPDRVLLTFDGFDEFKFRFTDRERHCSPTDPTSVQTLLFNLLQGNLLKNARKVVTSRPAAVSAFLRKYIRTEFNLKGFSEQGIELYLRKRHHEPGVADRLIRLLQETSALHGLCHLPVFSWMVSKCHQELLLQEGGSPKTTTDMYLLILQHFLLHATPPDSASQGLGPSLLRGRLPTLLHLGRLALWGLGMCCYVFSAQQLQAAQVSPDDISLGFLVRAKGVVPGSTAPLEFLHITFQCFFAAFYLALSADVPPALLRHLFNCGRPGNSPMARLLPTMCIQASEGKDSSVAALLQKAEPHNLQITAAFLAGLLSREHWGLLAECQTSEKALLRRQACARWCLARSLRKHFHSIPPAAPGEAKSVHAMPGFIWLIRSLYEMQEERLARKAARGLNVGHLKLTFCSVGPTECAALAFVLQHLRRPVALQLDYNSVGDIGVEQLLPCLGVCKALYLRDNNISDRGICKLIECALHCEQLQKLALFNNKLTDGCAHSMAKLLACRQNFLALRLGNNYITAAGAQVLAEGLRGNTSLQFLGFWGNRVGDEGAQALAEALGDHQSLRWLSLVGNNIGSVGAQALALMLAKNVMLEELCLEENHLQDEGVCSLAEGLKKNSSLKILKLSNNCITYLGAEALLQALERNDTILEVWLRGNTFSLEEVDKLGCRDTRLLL

BJ [12] = assay: BJ-TERT fibroblast viability loss – cell-based, RAS-independent, luminescence, dose response (AID 1933); assay type: functional; settings: Homo sapiens
BJ [13] = assay: cells; assay type: functional, cell-based; settings: Homo sapiens
HEK293 [14] = assay: cells; assay type: functional, cell-based; settings: Homo sapiens; remark: listed apart in the source
BJ [15] = assay: growth inhibition of engineered Ras-driven BJ cells – cell-based, alamar blue fluorescence, cherrypicked samples, dose response (AID 2631); assay type: functional; settings: Homo sapiens;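 note: confirmatory dose-response assay in RAS-dependent BJ fibroblasts engineered with TERT, LT and ST, with cytotoxicity read by fluorescence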
[16] = alpha-synuclein stem-loop luciferase translation blockers – H4 neuroglioma cells, luminescence, confirmation (AID 1988); assay type: functional, cell-based
[17] = target: T4, Microphthalmia-associated transcription factor (Homo sapiens, UniProt O75030); assay: reducers of TRPM1 reporter luminescence, concentration series – cell-based, SK-MEL-5, cherry-picked, set 3, MITF inhibitor project, dose response (AID 493073); assay type: functional;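 note: SK-MEL-5 melanoma cells with luciferase driven by the MITF target TRPM1 promoter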
T4 sequence (O75030 whole entry): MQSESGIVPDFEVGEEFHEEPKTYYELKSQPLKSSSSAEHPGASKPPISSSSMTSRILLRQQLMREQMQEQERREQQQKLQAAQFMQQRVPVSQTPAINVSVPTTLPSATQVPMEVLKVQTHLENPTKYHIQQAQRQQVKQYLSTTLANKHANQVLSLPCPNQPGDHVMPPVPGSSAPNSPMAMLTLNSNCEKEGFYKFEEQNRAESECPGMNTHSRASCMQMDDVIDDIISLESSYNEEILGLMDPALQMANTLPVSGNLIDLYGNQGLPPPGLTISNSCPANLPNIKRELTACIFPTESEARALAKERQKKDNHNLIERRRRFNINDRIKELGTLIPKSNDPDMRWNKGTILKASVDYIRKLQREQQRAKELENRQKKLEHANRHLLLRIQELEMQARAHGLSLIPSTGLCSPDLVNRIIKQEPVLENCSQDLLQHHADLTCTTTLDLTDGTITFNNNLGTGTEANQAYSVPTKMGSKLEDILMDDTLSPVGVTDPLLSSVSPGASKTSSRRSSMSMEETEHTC

[18] = THP-1 cell cytotoxicity, dose response, cytotoxicity control for non-replicating M. tuberculosis project (AID 489025); assay type: functional
HEK293 [19] = assay: NOD2 signaling inhibitors in MDP-stimulated cells, cell-based, uHTS, luminescence (AID 2001); assay type: functional; settings: Homo sapiens
HEK293 [20] = assay: cells; assay type: functional, cell-based; settings: Homo sapiens; remark: listed apart in the source
Cytochrome P450 2D6 = Cytochrome P450 2D6 (Homo sapiens, UniProt P10635);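 note: CYP2D6 member of a cytochrome P450 panel assay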
Chain of Cytochrome P450 2D6 (P10635 whole entry): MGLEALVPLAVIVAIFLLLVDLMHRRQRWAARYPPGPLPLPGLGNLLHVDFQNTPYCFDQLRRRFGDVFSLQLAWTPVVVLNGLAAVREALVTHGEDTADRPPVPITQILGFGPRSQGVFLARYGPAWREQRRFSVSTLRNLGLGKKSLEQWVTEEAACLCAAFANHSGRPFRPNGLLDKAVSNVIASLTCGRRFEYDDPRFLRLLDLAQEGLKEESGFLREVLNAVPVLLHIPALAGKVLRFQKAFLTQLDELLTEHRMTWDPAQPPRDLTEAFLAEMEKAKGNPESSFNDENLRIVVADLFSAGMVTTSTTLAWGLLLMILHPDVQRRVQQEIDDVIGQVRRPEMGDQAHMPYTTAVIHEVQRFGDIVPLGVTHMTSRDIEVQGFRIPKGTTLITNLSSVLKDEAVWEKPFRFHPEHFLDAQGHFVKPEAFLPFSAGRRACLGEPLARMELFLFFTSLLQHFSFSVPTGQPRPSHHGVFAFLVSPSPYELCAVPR

Large T antigen = Large T antigen (Simian virus 40, UniProt P03070); assay type: functional, Betapolyomavirus macacae;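 note: Confirmatory-stage PubChem screen for compounds that inhibit SV40 T antigen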
Chain of Large T antigen (P03070 whole entry): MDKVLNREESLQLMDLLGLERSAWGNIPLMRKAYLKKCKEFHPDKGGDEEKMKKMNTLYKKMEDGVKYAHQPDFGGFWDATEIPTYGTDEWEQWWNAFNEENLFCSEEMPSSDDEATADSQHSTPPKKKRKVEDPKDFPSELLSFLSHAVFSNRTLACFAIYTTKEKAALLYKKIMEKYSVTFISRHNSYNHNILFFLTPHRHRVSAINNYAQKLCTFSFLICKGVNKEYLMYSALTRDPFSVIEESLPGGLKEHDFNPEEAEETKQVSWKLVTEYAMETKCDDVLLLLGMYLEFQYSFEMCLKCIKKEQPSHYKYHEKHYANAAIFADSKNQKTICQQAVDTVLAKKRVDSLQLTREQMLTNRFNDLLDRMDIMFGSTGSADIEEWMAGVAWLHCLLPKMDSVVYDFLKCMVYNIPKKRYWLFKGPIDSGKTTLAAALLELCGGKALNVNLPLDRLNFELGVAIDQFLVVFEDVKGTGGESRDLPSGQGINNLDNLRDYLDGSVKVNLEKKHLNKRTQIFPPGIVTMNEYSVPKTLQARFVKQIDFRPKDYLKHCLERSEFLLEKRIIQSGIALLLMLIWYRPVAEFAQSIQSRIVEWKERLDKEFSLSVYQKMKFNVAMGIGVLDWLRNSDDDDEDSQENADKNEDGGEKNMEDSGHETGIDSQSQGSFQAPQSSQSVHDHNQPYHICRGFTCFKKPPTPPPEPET

[21] = microbe, parasite or virus in culture; assay type: functional; settings: Mycobacterium tuberculosis
H4 = assay: Luminescence Cell-Based Dose Response HTS to Identify Activators of 5'UTR Stem-Loop Driven Prion Protein mRNA Translation in H4 Neuroglioblastoma Cells. [Related pubchem assays: 1829 (Project Summary), 1814 (Primary HTS)]; assay type: functional; settings: Homo sapiens
[22] = Luminescence Cell-Based Dose Response HTS to Identify Activators of Luciferase Translation or Activity in H4 […] Cells. [Related pubchem assays: 1829 (Project Summary), 1814 (Primary HTS)]; assay type: functional
[23] = viability loss of HPDE-C7K cells – cell-based, fluorescence, HTS, primary screen (AID 431); assay type: functional; settings: Homo sapiens
[24] = Luminescence Cell-Based Dose Confirmation HTS to Identify Activators of 5'UTR Stem-Loop Driven Alpha-Synuclein mRNA Translation in H4 Neuroglioblastoma Cells. [Related pubchem assays: 1829 (Project Summary), 1814 (Primary HTS)]; assay type: functional
[25] = HPDE-C7 pancreatic duct cell viability loss – fluorescence, HTS (AID 430); assay type: functional, cell-based; settings: Homo sapiens
Paired box protein Pax-8 = Paired box protein Pax-8 (Homo sapiens, UniProt Q06710); assay: PAX8 transcriptional activity inhibition in RMG-I – RMG-I cells, luciferase, cherry-pick, dose response (AID 687027); assay type: functional, cell-based;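 note: luciferase reporter driven by Pax8 target thyroperoxidase promoter measured by SteadyGlo luminescence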
Chain of Paired box protein Pax-8 (Q06710 whole entry): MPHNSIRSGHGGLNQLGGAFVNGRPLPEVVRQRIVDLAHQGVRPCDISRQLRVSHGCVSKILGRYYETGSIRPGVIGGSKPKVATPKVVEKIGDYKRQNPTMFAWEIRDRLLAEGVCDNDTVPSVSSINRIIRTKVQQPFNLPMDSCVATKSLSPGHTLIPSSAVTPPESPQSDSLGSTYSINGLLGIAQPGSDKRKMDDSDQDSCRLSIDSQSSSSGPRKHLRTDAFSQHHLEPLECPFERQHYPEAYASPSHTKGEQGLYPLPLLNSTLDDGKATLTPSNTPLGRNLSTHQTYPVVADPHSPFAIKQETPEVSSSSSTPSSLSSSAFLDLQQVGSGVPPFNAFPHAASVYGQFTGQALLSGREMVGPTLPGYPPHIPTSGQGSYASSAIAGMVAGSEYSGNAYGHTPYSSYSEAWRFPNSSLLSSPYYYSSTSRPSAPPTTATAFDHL

[26] = target: Peroxisome proliferator-activated receptor gamma/Nuclear receptor coactivator 1 (Homo sapiens, UniProt P37231); assay: TR-FRET dose response biochemical High Throughput Screening assay for agonists of the steroid receptor coactivator 1 (SRC-1) recruitment by the peroxisome proliferator-activated receptor gamma (PPAR gamma): non-selective agonists. [Related pubchem assays (depositor defined):AID1300, AID1808, AID504735, AID631]; assay type: protein assay
[27] = target: Peroxisome proliferator-activated receptor gamma/Nuclear receptor coactivator 2 (Homo sapiens, UniProt P37231); assay: (§1) TR-FRET dose response biochemical High Throughput Screening assay for agonists of the steroid receptor coactivator 2 (SRC-2) recruitment by the peroxisome proliferator-activated receptor gamma (PPAR gamma): non-selective agonists. [Related pubchem assays: 1297, 1032 ]; assay type: functional
[28] = target: Peroxisome proliferator-activated receptor gamma/Nuclear receptor coactivator 3 (Homo sapiens, UniProt P37231); assay: as §1, with “3 (SRC-3)” for “2 (SRC-2)”, “1301 (Confirmation screen.), 1048 (Primary screen.)]” for “1297, 1032 ]”; assay type: functional

In the case of `CN(/N=C/c1ccc2c(c1)OCO2)c1nc(N2CCOCC2)nc(N2CCOCC2)n1`, the IC50 (Coagulation factor XII) is reported as > 50 µM (inactive).

In the case of `COc1ccc(CN(C)C(=O)Cc2ccc(OC)c(S(=O)(=O)N3CCOCC3)c2)cc1OC`, the IC50 [1] is reported as 12.6 µM (active), the IC50 [2] is reported as 10.8 µM (active) and the IC50 (Bcl-2-related protein A1) is reported as > 20 µM (inactive).

For `CC(=O)Nc1ccc(S(=O)(=O)Nc2nc3ccccc3nc2Nc2ccc3ccccc3c2)cc1`, the IC50 (SUMO-activating enzyme) was > 100 µM (inactive).

With `O=C(N/N=C/c1ccc([N+](=O)[O-])o1)c1cc2ccccc2o1` the IC50 (HEK293 [3]) was > 20 µM (inactive), the EC50 [4] was > 60 µM (not active) and the AC50 (INS1) was 2.63 µM (active). For the same compound, the IC50 (cells) was 1.85 µM (active), the EC50 (HEK293 [5]) was 7.3 µM (active) and the EC50 (BJ [6]) was 14.1 µM (inconclusive). For the same compound, the CC50 [7] was > 20 µM (active), the EC50 [8] was > 120 µM (not active) and the CC50 [9] was 17 µM (active). For the same compound, the EC50 [10] was 23.8 µM (active), the EC50 [11] was 10.5 µM (active) and the EC50 (BJ [12]) was 21.2 µM (active). The EC50 (BJ [13]) was 10.7 µM (active), the IC50 (HEK293 [14]) was 16.1 µM (active) and the EC50 (BJ [15]) was 4.63 µM (inconclusive). For the same compound, the EC50 [16] was > 120 µM (not active), the AC50 [17] was 5.99 µM (active) and the CC50 [18] was 22 µM (active). The IC50 (HEK293 [19]) was 17.8 µM (inactive) and the IC50 (HEK293 [20]) was > 20 µM (inactive).

With `CCOC(=O)C[n+]1c(C)sc2ccc(OC)cc21` the AC50 (Cytochrome P450 2D6) was 12.6 µM (inconclusive), the IC50 (Large T antigen) was 22.1 µM (active) and the IC50 (Coagulation factor XII) was > 50 µM (inactive).

For `Cc1sc2nc(C(C)Nc3ccccc3N3CCOCC3)[nH]c(=O)c2c1C` (stereo unspecified), the IC50 [1] was 16.5 µM (active), the IC50 [2] was 9.08 µM (active) and the IC50 (Bcl-2-related protein A1) was > 20 µM (inactive).

For `Nc1nnnn1/N=C/C(Br)=C/c1ccccc1`, the CC50 [21] was 6.31 µM (active), the EC50 (H4) was > 120 µM (not active) and the IC50 (cells) was 5.76 µM (active). The EC50 [22] was > 120 µM (not active), the EC50 [23] was 2.94 µM (active) and the EC50 (BJ [6]) was > 38 µM (inconclusive). The CC50 [7] was 5.79 µM (active), the EC50 [24] was 17.4 µM (active) and the CC50 [9] was 10 µM (active). For the same compound, the EC50 [10] was 3.95 µM (active), the EC50 (BJ [12]) was 5.12 µM (inconclusive) and the EC50 (BJ [13]) was > 150 µM (inconclusive). The EC50 [25] was 2.37 µM (active), the AC50 [17] was 5.44 µM (active) and the AC50 (Paired box protein Pax-8) was 1.36 µM (active). The CC50 [18] was 5.96 µM (active).

With `COc1ccccc1CC(=O)NCc1csc(-c2cccs2)n1` the IC50 (Coagulation factor XII) was > 50 µM (inactive).

In the case of `CCOc1ccc(S(=O)(=O)N(C)c2ccc(OCC(=O)Nc3nc(-c4cc(OC)ccc4OC)cs3)cc2)cc1`, the EC50 [26] is reported as 36.5 µM (inactive), the EC50 [27] is reported as 34.8 µM (not active) and the EC50 [28] is reported as > 79.4 µM (not active).
